Legend:
Format in all cases: functional, cell-based
[1] = test system: MDA-MB-468; assay: Growth inhibition of human MDA-MB-468 cells assessed as cell viability measured after 4 days by WST8 assay; conditions: MDA-MB-468, 96 h
[2] = test system: MDA-MB-231; assay: Growth inhibition of human MDA-MB-231 cells assessed as cell viability measured after 4 days by WST8 assay; conditions: MDA-MB-231, 96 h
[3] = test system: BT-549; assay: Growth inhibition of human BT-549 cells assessed as cell viability measured after 4 days by WST8 assay; conditions: BT-549, 96 h

Row | Structure (SMILES) | IC50 [1] [µM] | IC50 [2] [µM] | IC50 [3] [µM]
1 | CC(C)c1cnn2c(NCc3ccccc3-n3ccnc3)nc(OC3CCN(CCOCCNC(=O)COc4cccc5c4C(=O)N(C4CCC(=O)NC4=O)C5=O)CC3)nc12 (stereo not given) | 15.8 | > 20 | > 20
2 | CC(C)c1cnn2c(NCc3ccc(CCCOCCOCCOc4cccc5c4C(=O)N(C4CCC(=O)NC4=O)C5=O)cc3)nc(OC3CCN(C)CC3)nc12 (stereo not given) | 3.37 | 4.45 | 1.57
3 | CC(C)c1cnn2c(NCc3ccccc3N(C)C)nc(OC3CCN(C)CC3)nc12 | 8.78 | 11.9 | 1.03
4 | CC(C)c1cnn2c(NCc3ccccc3-n3ccnc3)nc(OC3CCN(C)CC3)nc12 | 3.92 | 9.29 | 2.26
5 | CC(C)c1cnn2c(NCc3ccc(NC(=O)N4CCN(CCCCCc5cccc6c5CN(C5CCC(=O)NC5=O)C6=O)CC4)cc3)nc(OC3CCN(C)CC3)nc12 (stereo not given) | 0.098 | 0.065 | 0.074
6 | CC(C)c1cnn2c(NCc3ccc(NC(=O)CCCCCN4CCN(CCCCCc5cccc6c5CN(C5CCC(=O)NC5=O)C6=O)CC4)cc3)nc(OC3CCN(C)CC3)nc12 (stereo not given) | 0.222 | 0.251 | 0.08
7 | CC(C)c1cnn2c(NCc3ccccc3)cc(NCCCCCCN)nc12 | 16.3 | 18.5 | 12.8
8 | CC(C)c1cnn2c(NCc3ccccc3-n3ccnc3)nc(OC3CCN(CCOCCOCCOCCNC(=O)COc4cccc5c4C(=O)N(C4CCC(=O)NC4=O)C5=O)CC3)nc12 (stereo not given) | > 20 | > 20 | 21.5
9 | CC(C)c1cnn2c(NCc3ccccc3)nc(OC3CCN(C)CC3)nc12 | 3.07 | 3.01 | 0.53
10 | CC(C)c1cnn2c(NCc3ccc(CCCCCCNC(=O)COc4cccc5c4C(=O)N(C4CCC(=O)NC4=O)C5=O)cc3)cc(NCCCCCCN)nc12 (stereo not given) | 10.3 | 16.6 | 12.9
11 | CC(C)c1cnn2c(NCc3ccccc3)cc(NCCCCCCNCCOCCNC(=O)COc3cccc4c3C(=O)N(C3CCC(=O)NC3=O)C4=O)nc12 (stereo not given) | > 20 | > 20 | > 20
12 | CC(C)c1cnn2c(NCc3ccccc3)nc(OC3CCN(CCOCCOCCNC(=O)COc4cccc5c4C(=O)N(C4CCC(=O)NC4=O)C5=O)CC3)nc12 (stereo not given) | > 20 | > 20 | 9.88
13 | CC(C)c1cnn2c(NCc3ccc(NC(=O)CCCCCOc4cccc5c4C(=O)N(C4CCC(=O)NC4=O)C5)cc3)nc(OC3CCN(C)CC3)nc12 (stereo not given) | 0.47 | 0.57 | 0.37
14 | CC(C)c1cnn2c(NCc3ccccc3)cc(NCCCCCCNCCOCCOCCOCCNC(=O)COc3cccc4c3C(=O)N(C3CCC(=O)NC3=O)C4=O)nc12 (stereo not given) | > 20 | > 20 | > 20
15 | CC(C)c1cnn2c(NCc3ccc(NC(=O)COCCOCCOc4cccc5c4C(=O)N(C4CCC(=O)NC4=O)C5=O)cc3)nc(OC3CCN(C)CC3)nc12 (stereo not given) | 4.59 | 9.2 | 3.78
16 | CC(C)c1cnn2c(NCc3ccc(NC(=O)COCCOCCOCCOc4cccc5c4C(=O)N(C4CCC(=O)NC4=O)C5=O)cc3)nc(OC3CCN(C)CC3)nc12 (stereo not given) | 4.37 | 10.3 | 4.69
17 | CC(C)c1cnn2c(NCc3cccc(CCCCCCNC(=O)COc4cccc5c4C(=O)N(C4CCC(=O)NC4=O)C5=O)c3)cc(NCCCCCCN)nc12 (stereo not given) | 16.3 | > 20 | 12.8
18 | CC(C)c1cnn2c(NCc3ccc(NC(=O)CCCCCN4CCN(CCCc5cccc6c5CN(C5CCC(=O)NC5=O)C6=O)CC4)cc3)nc(OC3CCN(C)CC3)nc12 (stereo not given) | 0.24 | 0.9 | 0.19
19 | CC(C)c1cnn2c(NCc3ccc(NC(=O)CCCN4CCN(CCCc5cccc6c5CN(C5CCC(=O)NC5=O)C6=O)CC4)cc3)nc(OC3CCN(C)CC3)nc12 (stereo not given) | 0.59 | 0.9 | 0.58
20 | CC(C)c1cnn2c(NCc3ccc(NC(=O)CCCN4CCN(CCCCCc5cccc6c5CN(C5CCC(=O)NC5=O)C6=O)CC4)cc3)nc(OC3CCN(C)CC3)nc12 (stereo not given) | 0.34 | 0.46 | 0.19

Now from value to compound:

Row | IC50 [1] [µM] | IC50 [2] [µM] | IC50 [3] [µM] | Structure (SMILES)
21 | 17.9 | 12.6 | 12.6 | CC(C)c1cnn2c(NCc3cc(CCCCCCNC(=O)COc4cccc5c4C(=O)N(C4CCC(=O)NC4=O)C5=O)ccc3N(C)C)nc(OC3CCN(C)CC3)nc12 (stereo not given)
22 | > 20 | > 20 | 12.8 | CC(C)c1cnn2c(NCc3cccc(NC(=O)CCCCCCNC(=O)COc4cccc5c4C(=O)N(C4CCC(=O)NC4=O)C5=O)c3)nc(OC3CCN(C)CC3)nc12 (stereo not given)
23 | 0.56 | 0.95 | 0.64 | CC(C)c1cnn2c(NCc3ccc(NC(=O)CCCCCOc4cccc5c4C(=O)N(C4CCC(=O)NC4=O)C5=O)cc3)nc(OC3CCN(C)CC3)nc12 (stereo not given)
24 | 1.45 | 1.55 | 1.63 | CC(C)c1cnn2c(NCc3ccc(NC(=O)CCCCCCNC(=O)COc4cccc5c4C(=O)N(C4CCC(=O)NC4=O)C5=O)cc3)nc(OC3CCN(C)CC3)nc12 (stereo not given)
25 | > 20 | > 20 | > 20 | CC(C)c1cnn2c(NCc3cc(NC(=O)CCCCCCNC(=O)COc4cccc5c4C(=O)N(C4CCC(=O)NC4=O)C5=O)ccc3N(C)C)nc(OC3CCN(C)CC3)nc12 (stereo not given)
26 | > 20 | > 20 | 14.3 | CC(C)c1cnn2c(NCc3ccc(NC(=O)CCCCCCNC(=O)COc4cccc5c4C(=O)N(C4CCC(=O)NC4=O)C5=O)cc3N(C)C)nc(OC3CCN(C)CC3)nc12 (stereo not given)
27 | 4.89 | 4.26 | 2.66 | CC(C)c1cnn2c(NCc3ccc(NC(=O)CCCCCCNc4cccc5c4C(=O)N(C4CCC(=O)NC4=O)C5=O)cc3N(C)C)nc(OC3CCN(C)CC3)nc12 (stereo not given)
28 | 3.22 | 4.32 | 2.06 | CC(C)c1cnn2c(NCc3ccc(CCCCCCCOc4cccc5c4C(=O)N(C4CCC(=O)NC4=O)C5=O)cc3)nc(OC3CCN(C)CC3)nc12 (stereo not given)
29 | > 20 | > 20 | > 20 | CC(C)c1cnn2c(NCc3ccccc3N(C)C)nc(OC3CCN(CCOCCNC(=O)COc4cccc5c4C(=O)N(C4CCC(=O)NC4=O)C5=O)CC3)nc12 (stereo not given)
30 | > 20 | > 20 | > 20 | CC(C)c1cnn2c(NCc3ccccc3)nc(OC3CCN(CCOCCNC(=O)COc4cccc5c4C(=O)N(C4CCC(=O)NC4=O)C5=O)CC3)nc12 (stereo not given)
31 | > 20 | > 20 | > 20 | CC(C)c1cnn2c(NCc3ccccc3N(C)C)nc(OC3CCN(CCOCCOCCOCCNC(=O)COc4cccc5c4C(=O)N(C4CCC(=O)NC4=O)C5=O)CC3)nc12 (stereo not given)
32 | 0.66 | 0.53 | 0.55 | CC(C)c1cnn2c(NCc3ccc(NC(=O)CCCCCCNc4cccc5c4C(=O)N(C4CCC(=O)NC4=O)C5=O)cc3)nc(OC3CCN(C)CC3)nc12 (stereo not given)
33 | 2.87 | 4.16 | 4.11 | CC(C)c1cnn2c(NCc3ccc(CCCCCCCOc4cccc5c4C(=O)N(C4CCC(=O)NC4=O)C5=O)cc3N(C)C)nc(OC3CCN(C)CC3)nc12 (stereo not given)
34 | 3.45 | 4.16 | 2.01 | CC(C)c1cnn2c(NCc3cccc(CCCCCCCOc4cccc5c4C(=O)N(C4CCC(=O)NC4=O)C5=O)c3N(C)C)nc(OC3CCN(C)CC3)nc12 (stereo not given)
35 | 5.24 | 5.28 | 8.39 | CC(C)c1cnn2c(NCc3ccc(CCCCCCNC(=O)COc4cccc5c4C(=O)N(C4CCC(=O)NC4=O)C5=O)cc3N(C)C)nc(OC3CCN(C)CC3)nc12 (stereo not given)

Source: ChEMBL document CHEMBL4828763, “Discovery of Potent and Selective CDK9 Degraders for Targeting Transcription Regulation in Triple-Negative Breast Cancer” (J Med Chem, 2021)
